The test system of this assay is HeLa cervical carcinoma cell line. Briefly: Cellular cytotoxicity assay (Alamar Blue / Resazurin). In kind it is cell-based. Conditions: Homo sapiens; HeLa cells, 48 hours incubation; read-out: IC50 (anti-proliferative/cytotoxic potency). As to the method: The anti-proliferative activity of the histone deacetylase inhibitory compounds as described herein, is evaluated with the HeLa cervical carcinoma cell line (ATCC CCL2) using the Alamar Blue (Resazurin) cell viability assay (O'Brien et al. Eur J Biochem 267, 5421-5426, 2000). Resazurin is reduced to the fluorescent resorufin by cellular dehydrogenase activity, correlating with viable, proliferating cells. Test compounds are dissolved as 10 mM solutions in dimethylsulfoxide (DMSO) and subsequently diluted in semi-logarithmic steps. HeLa cells are seeded into 96 well flat bottom plates at a density of 3000 cells per well in a volume of 200 μl per well. 24 hours after seeding 1 μl each of the compound dilutions are added into each well of the 96 Well plate. Each compound dilution is tested as quadruplicates. Wells containing untreated control cells are filled with 200 μl DMEM medium containing 0.5% v:v DMSO. The cells are then incubated with the substances for 48 hours at 37° C. in a humidified atmosphere containing 5% carbon dioxide. To determine the viability of the cells, 20 μl of an Resazurin solution (Sigma; 90 mg/l) are added. After 4 hours incubation at 37° C. the fluorescence is measured at an extinction of 544 nm and an emission of 590 nm. For the calculation of the cell viability the emission value from untreated cells is set as 100% viability and the emission rates of treated cells are set in relation to the values of untreated cells. Viabilites are expressed as % values. The corresponding IC50 values of the compounds for cytotoxic activity are determined from the concentration-effect curves by means of non-linear regression.
As to `CN(C)Cc1cccc(-c2ccc(S(=O)(=O)n3ccc(/C=C/C(=O)Nc4ccccc4N)c3)cc2)c1` [Compound 96, (E)-N-(2-Amino-phenyl)-3-[1-(3′-dimethylaminomethyl-biphenyl-4-sulfonyl)-1H-pyrrol-3-yl]-acrylamide], the IC50 fell in the range of 0.014 to 6.7 µM.
Then `COc1ccc(-c2ccc(S(=O)(=O)n3ccc(/C=C/C(=O)NO)c3)cc2)cc1` [Compound 82, (E)-N-Hydroxy-3-[1-(4′-methoxy-biphenyl-4-sulfonyl)-1H-pyrrol-3-yl]-acrylamide], with 0.014 to 6.7 µM; and `CN1CCN(c2cc(-c3ccc(S(=O)(=O)n4ccc(/C=C/C(=O)NO)c4)cn3)ccn2)CC1` [Compound 103, (E)-N-Hydroxy-3-{1-[2′-(4-methyl-piperazin-1-yl)-[2,4′]bipyridinyl-5-sulfonyl]-1H-pyrrol-3-yl}-acrylamide], with 0.014 to 6.7 µM.
Then `NCc1ccc(-c2ccccc2)cc1S(=O)(=O)n1ccc(/C=C/C(=O)NO)c1` [Compound 91, (E)-3-[1-(4-Aminomethyl-biphenyl-3-sulfonyl)-1H-pyrrol-3-yl]-N-hydroxy-acrylamide], with 0.014 to 6.7 µM.
Then `CN(C)Cc1ccc(-c2ccc(S(=O)(=O)n3ccc(/C=C/C(=O)NO)c3)cn2)cc1` [Compound 105, (E)-3-{1-[6-(4-Dimethylaminomethyl-phenyl)-pyridine-3-sulfonyl]-1H-pyrrol-4-yl}-N-hydroxy-acrylamide], with 0.014 to 6.7 µM.
On to `O=C(/C=C/c1ccn(S(=O)(=O)c2ccc(-c3ccc4c(c3)OCO4)cc2)c1)NO` [Compound 65, (E)-3-[1-(4-Benzo[1,3]dioxol-5-yl-benzenesulfonyl)-1H-pyrrol-3-yl]-N-hydroxy-acrylamide], for which the IC50 lay within 0.014 to 6.7 µM.
The result for `O=C(/C=C/c1ccn(S(=O)(=O)c2ccc(-c3cccc(CN4CCOCC4)c3)cc2)c1)NO` [Compound 64, (E)-N-Hydroxy-3-[1-(3′-morpholin-4-ylmethyl-biphenyl-4-sulfonyl)-1H-pyrrol-3-yl]-acrylamide] reads 0.014 to 6.7 µM.
On to `CN1CCC(CCOc2ccc(-c3ccc(S(=O)(=O)n4ccc(C=CC(=O)NO)c4)cc3)cc2)CC1` [Compound 68, (E)-N-Hydroxy-3-(1,4′-[2-(1-methyl-piperidin-4-yl)-ethoxy]biphenyl-4-sulfonyl)-1H-pyrrol-3-yl)-acrylamide], for which the IC50 was in the range of 0.014 to 6.7 µM.
Then `CC(=O)NCc1ccc(-c2ccc(S(=O)(=O)n3ccc(/C=C/C(=O)Nc4ccccc4N)c3)cc2)cc1` [Compound 97, (E)-3-{1-[4′-(Acetylamino-methyl)-biphenyl-4-sulfonyl]-1H-pyrrol-3-yl}-N-(2-amino-phenyl)-acrylamide], with 0.014 to 6.7 µM; and `O=C(/C=C/c1ccn(S(=O)(=O)c2ccc(-c3cccc(C(F)(F)F)c3)cc2)c1)NO` [Compound 85, (E)-N-Hydroxy-3-[1-(3′-trifluoromethyl-biphenyl-4-sulfonyl)-1H-pyrrol-3-yl]acrylamide], with 0.014 to 6.7 µM; and `Nc1ccccc1NC(=O)/C=C/c1ccn(S(=O)(=O)c2ccc(-c3ccc(OCCN4CCCC4)cc3)cc2)c1` [Compound 108, (E)-N-(2-Amino-phenyl)-3-{1-[4′-(2-pyrrolidin-1-yl-ethoxy)-biphenyl 4-sulfonyl]-1H-pyrrol-3-yl}-acrylamide], with 0.014 to 6.7 µM.
Then `Nc1cccc(-c2ccc(S(=O)(=O)n3ccc(/C=C/C(=O)NO)c3)cc2)c1` [Compound 66, (E)-3-[1-(3′-Amino-biphenyl-4-sulfonyl)-1H-pyrrol-3-yl]-N-hydroxy-acrylamide], with 0.014 to 6.7 µM.
The result for `CN(C)S(=O)(=O)c1ccc(-c2ccc(S(=O)(=O)n3ccc(/C=C/C(=O)NO)c3)s2)cc1` [Compound 100, (E)-3-{1-[5-(4-Dimethylsulfamoyl-phenyl)-thiophene-2-sulfonyl]-1H-pyrrol-3-yl}-N-hydroxy-acrylamide] reads 0.014 to 6.7 µM; that for `CN1CCN(CCCOc2ccc(-c3ccc(S(=O)(=O)n4ccc(/C=C/C(=O)NO)c4)cc3)cc2)CC1` [Compound 79, (E)-N-Hydroxy-3-(1-{4′-[3-(4-methyl-piperazin-1-yl)-propoxy]-biphenyl-4-sulfonyl}-1H-pyrrol-3-yl)-acrylamide], 0.014 to 6.7 µM; that for `CN(C)Cc1ccc(-c2cccc(S(=O)(=O)n3ccc(/C=C/C(=O)Nc4ccccc4N)c3)c2)cc1` [Compound 102, (E)-N-(2-Amino-phenyl)-3-[1-(4′-dimethylaminomethyl-biphenyl-3-sulfonyl)-1H-pyrrol-3-yl]-acrylamide], 0.014 to 6.7 µM.
With `O=C(/C=C/c1ccn(S(=O)(=O)c2ccc(-c3cccc(OCCCN4CCOCC4)c3)cc2)c1)NO` [Compound 74, (E)-N-Hydroxy-3-{1-[3′-(3-morpholin-4-yl-propoxy)-biphenyl-4-sulfonyl]-1H-pyrrol-3-yl}-acrylamide], the IC50 is 0.014 to 6.7 µM.
The result for `O=C(/C=C/c1ccn(S(=O)(=O)c2ccc(-c3cn(CCN4CCOCC4)nn3)cc2)c1)NO` [Compound 83, (E)-N-Hydroxy-3-(1-{4-[1-(2-morpholin-4-yl-ethyl)-1H-[1,2,3]triazol-4-yl]-benzenesulfonyl}-1H-pyrrol-3-yl)-acrylamide] reads 0.014 to 6.7 µM; that for `CS(=O)(=O)NCc1ccc(-c2ccc(S(=O)(=O)n3ccc(/C=C/C(=O)Nc4ccccc4N)c3)cc2)cc1` [Compound 98, (E)-N-(2-Amino-phenyl)-3-{1-[4′-(methanesulfonylamino-methyl)biphenyl-4-sulfonyl]-1H-pyrrol-3-yl}-acrylamide], 0.014 to 6.7 µM; that for `CN(C)Cc1ccc(-c2ccc(S(=O)(=O)n3ccc(/C=C/C(=O)Nc4ccccc4N)c3)s2)cc1` [Compound 95, (E)-N-(2-Amino-phenyl)-3-{1-[5-(4-dimethylaminomethyl-phenyl)-thiophene-2-sulfonyl]-1H-pyrrol-3-yl}-acrylamide], 0.014 to 6.7 µM.
Then `Cn1cc(-c2ccc(S(=O)(=O)n3ccc(/C=C/C(=O)Nc4ccccc4N)c3)s2)cn1` [Compound 104, (E)-N-(2-Amino-phenyl)-3-{1-[5-(1-methyl-1H-pyrazol-4-yl)-thiophene-2-sulfonyl]-1H-pyrrol-3-yl}-acrylamide], with 0.014 to 6.7 µM; and `CN1CCN(CCOc2ccc(-c3ccc(S(=O)(=O)n4ccc(/C=C/C(=O)NO)c4)cc3)cc2)CC1` [Compound 76, (E)-N-Hydroxy-3-(1-{4′-[2-(4-methyl-piperazin-1-yl)-ethoxy]-biphenyl-4-sulfonyl}-1H-pyrrol-3-yl)-acrylamide], with 0.014 to 6.7 µM; and `O=C(/C=C/c1ccn(S(=O)(=O)c2ccc(-c3cccc(OCCN4CCCC4)c3)cc2)c1)NO` [Compound 80, (E)-N-Hydroxy-3-{1-[3′-(2-pyrrolidin-1-yl-ethoxy)-biphenyl-4-sulfonyl]-1H-pyrrol-3-yl}-acrylamide], with 0.014 to 6.7 µM.
Then `O=C(/C=C/c1ccn(S(=O)(=O)c2ccc(-c3ccc(OCCN4CCCC4)cc3)nc2)c1)NO` [Compound 92, (E)-N-Hydroxy-3-(1-{6-[4-(2-pyrrolidin-1-yl-ethoxy)-phenyl]-pyridine-3-sulfonyl}-1H-pyrrol-3-yl)-acrylamide], with 0.014 to 6.7 µM.
For `Cc1nc(-c2ccc(S(=O)(=O)n3ccc(/C=C/C(=O)NO)c3)s2)cs1` [Compound 90, (E)-N-Hydroxy-3-{1-[5-(2-methyl-thiazol-4-yl)-thiophene-2-sulfonyl]-1H-pyrrol-3-yl}-acrylamide], the IC50 lay in the range of 0.014 to 6.7 µM.
Then `O=C(/C=C/c1ccn(S(=O)(=O)c2ccc(-c3ccc(OCCCN4CCCC4)cc3)cc2)c1)NO` [Compound 81, (E)-N-Hydroxy-3-{1-[4′-(3-pyrrolidin-1-yl-propoxy)-biphenyl-4-sulfonyl]-1H-pyrrol-3-yl}-acrylamide], with 0.014 to 6.7 µM; and `O=C(C=Cc1ccn(S(=O)(=O)c2ccc(-c3ccc(OCCN4CCCC4)cc3)s2)c1)NO` [Compound 99, (E)-N-Hydroxy-3-(1-{5-([4-(2-pyrrolidin-1-yl-ethoxy)-phenyl]-thiophene-2-sulfonyl}-1H-pyrrol-3-yl)-acrylamide], with 0.014 to 6.7 µM.
Then `O=C(/C=C/c1ccn(S(=O)(=O)c2ccc(-c3ccc(OCCCN4CCOCC4)cc3)cc2)c1)NO` [Compound 78, (E)-N-Hydroxy-3-{1-[4′-(3-morpholin-4-yl-propoxy)-biphenyl-4-sulfonyl]-1H-pyrrol-3-yl}-acrylamide], with 0.014 to 6.7 µM.
Then `CN(C)Cc1ccc(-c2ccc(S(=O)(=O)n3ccc(/C=C/C(=O)Nc4ccccc4N)c3)cn2)cc1` [Compound 89, (E)-N-(2-Amino-phenyl)-3-{1-[6-(4-dimethylaminomethyl-phenyl)-pyridine-3-sulfonyl]-1H-pyrrol-3-yl}-acrylamide], with 0.014 to 6.7 µM.
As to `CN1CCN(c2cc(-c3ccc(S(=O)(=O)n4ccc(/C=C/C(=O)Nc5ccccc5N)c4)s3)ccn2)CC1` [Compound 106, (E)-N-(2-Amino-phenyl)-3-(1-{5-[2-(4-methyl-piperazin-1-yl)-pyridin-4-yl]-thiophene-2-sulfonyl}-1H-pyrrol-3-yl)-acrylamide], the IC50 is 0.014 to 6.7 µM.
The result for `O=C(/C=C/c1ccn(S(=O)(=O)c2ccc(-c3ccc(O)cc3)cc2)c1)NO` [Compound 67, (E)-N-Hydroxy-3-[1-(4′-hydroxy-biphenyl-4-sulfonyl)-1H-pyrrol-3-yl]acrylamide] reads 0.014 to 6.7 µM.

For the origin of these results see patent US7666868B2, “N-sulphonylpyrroles and their use as histone deacetylase inhibitors” (4SC AG, priority 2005, dated 2010).
